PubChem BioAssay AID248 (DTP/NCI, 2004)
Where “and” joins values, the source holds several entries; their conditions need not be identical. Identical values can stand only once. Toxic doses and inconclusive results are not listed. Rule as the data show it: active = T/C of 150% or more; inactive = T/C below 125%.

Tested on: L1210 leukemia ip in BDF1 mice, survival T/C
Test: NCI In Vivo Anticancer Drug Screen. Data for tumor model L1210 Leukemia (intraperitoneal) in B6D2F1 (BDF1) mice
Conditions: endpoint: mean survival time, higher = longer survival
Procedure, shortened: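 Transplantable tumor model; survival measured in treated vs vehicle control mice. Value = treated/control.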

[1] = dose: 100.0 mg/kg/injection, schedule: Q01DX001 (ip), vehicle: carboxymethylcellulose (CMC)
[2] = dose: 200.0 mg/kg/injection, schedule: Q01DX001 (ip), vehicle: carboxymethylcellulose (CMC)
[3] = dose: 400.0 mg/kg/injection, schedule: Q01DX001 (ip), vehicle: carboxymethylcellulose (CMC)
[4] = dose: 100.0 mg/kg/injection, schedule: Q04DX002 (ip), vehicle: Klucel (hydroxypropylcellulose) (HPC)
[5] = dose: 75.0 mg/kg/injection, schedule: Q01DX001 (ip), vehicle: saline
[6] = dose: 100.0 mg/kg/injection, schedule: Q01DX001 (ip), vehicle: saline
[7] = dose: 200.0 mg/kg/injection, schedule: Q01DX001 (ip), vehicle: saline
[8] = dose: 400.0 mg/kg/injection, schedule: Q01DX001 (ip), vehicle: saline
[9] = dose: 100.0 mg/kg/injection, schedule: Q01DX009 (ip), vehicle: Klucel (hydroxypropylcellulose) (HPC)
[10] = dose: 200.0 mg/kg/injection, schedule: Q01DX009 (ip), vehicle: Klucel (hydroxypropylcellulose) (HPC)
[11] = dose: 400.0 mg/kg/injection, schedule: Q01DX009 (ip), vehicle: Klucel (hydroxypropylcellulose) (HPC)

Measured: T/C

O=C(Oc1ccc([N+](=O)[O-])cc1)c1cccc(S(=O)(=O)F)c1
inactive: [1] 93 % of control and 102 % of control | dose: 100.0 mg/kg/injection, schedule: Q01DX009 (ip), vehicle: carboxymethylcellulose (CMC) 103 % of control and 110 % of control | dose: 100.0 mg/kg/injection, schedule: Q04DX003 (ip), vehicle: carboxymethylcellulose (CMC) 104 % of control | [2] 98 % of control and 101 % of control | dose: 200.0 mg/kg/injection, schedule: Q01DX009 (ip), vehicle: carboxymethylcellulose (CMC) 92 % of control and 94 % of control | dose: 200.0 mg/kg/injection, schedule: Q04DX003 (ip), vehicle: carboxymethylcellulose (CMC) 102 % of control and 90 % of control | [3] 98 % of control and 101 % of control | dose: 400.0 mg/kg/injection, schedule: Q01DX009 (ip), vehicle: carboxymethylcellulose (CMC) 92 % of control | dose: 400.0 mg/kg/injection, schedule: Q04DX003 (ip), vehicle: carboxymethylcellulose (CMC) 96 % of control and 90 % of control

Cc1ccc(C(=O)n2c(Cl)c(/C=N/NC(N)=S)c3ccccc32)cc1
inactive: dose: 50.0 mg/kg/injection, schedule: Q04DX002 (ip), vehicle: Klucel (hydroxypropylcellulose) (HPC) 87 % of control | [4] 95 % of control

O=Cc1ccc2ccc3cccc4ccc1c2c34
inactive: dose: 100.0 mg/kg/injection, schedule: Q04DX002 (ip), vehicle: saline with Tween-80 98 % of control | dose: 200.0 mg/kg/injection, schedule: Q04DX002 (ip), vehicle: saline with Tween-80 95 % of control | dose: 400.0 mg/kg/injection, schedule: Q04DX002 (ip), vehicle: saline with Tween-80 95 % of control

CCc1ccc(C(=O)O)oc1=O
inactive: [5] 89 % of control | dose: 150.0 mg/kg/injection, schedule: Q01DX001 (ip), vehicle: saline 92 % of control

CS(=O)(=O)OCCNCCOS(C)(=O)=O
inactive: dose: 15.0 mg/kg/injection, schedule: Q01DX001 (ip), vehicle: saline 104 % of control | dose: 30.0 mg/kg/injection, schedule: Q01DX001 (ip), vehicle: saline 113 % of control | dose: 60.0 mg/kg/injection, schedule: Q01DX001 (ip), vehicle: saline 106 % of control | [5] 93 % of control

O=S1c2ccccc2Sc2ccccc21
inactive: dose: 100.0 mg/kg/injection, schedule: Q04DX003 (ip), vehicle: saline with Tween-80 103 % of control | dose: 200.0 mg/kg/injection, schedule: Q04DX003 (ip), vehicle: saline with Tween-80 97 % of control | dose: 400.0 mg/kg/injection, schedule: Q04DX003 (ip), vehicle: saline with Tween-80 100 % of control

O=C(O)CC(O)C(Cl)(Cl)Cl (centres undefined)
inactive: [6] 93 % of control | [7] 104 % of control | [8] 98 % of control

O=C1c2ccccc2C(=O)N1CNc1ccc2c(c1)OCO2
inactive: dose: 50.0 mg/kg/injection, schedule: Q01DX009 (ip), vehicle: saline with Tween-80 108 % of control | dose: 100.0 mg/kg/injection, schedule: Q01DX009 (ip), vehicle: saline with Tween-80 97 % of control | dose: 200.0 mg/kg/injection, schedule: Q01DX009 (ip), vehicle: saline with Tween-80 90 % of control

O=C(N/N=C/c1ccc2c(c1)OCO2)c1ccccc1
inactive: [9] 93 % of control | dose: 100.0 mg/kg/injection, schedule: Q04DX003 (ip), vehicle: Klucel (hydroxypropylcellulose) (HPC) 101 % of control | [10] 96 % of control | dose: 200.0 mg/kg/injection, schedule: Q04DX003 (ip), vehicle: Klucel (hydroxypropylcellulose) (HPC) 104 % of control | [11] 86 % of control | dose: 400.0 mg/kg/injection, schedule: Q04DX003 (ip), vehicle: Klucel (hydroxypropylcellulose) (HPC) 98 % of control

Cc1cc(F)ccc1[As](=O)(O)O
inactive: dose: 25.0 mg/kg/injection, schedule: Q04DX003 (ip), vehicle: saline with Tween-80 101 % of control

CC(=Nc1cccnc1)c1ccccc1
inactive: dose: 15.0 mg/kg/injection, schedule: Q01DX001 (ip), vehicle: carboxymethylcellulose (CMC) 98 % of control | dose: 30.0 mg/kg/injection, schedule: Q01DX001 (ip), vehicle: carboxymethylcellulose (CMC) 97 % of control

Clc1ccc(Cl)nn1
inactive: dose: 100.0 mg/kg/injection, schedule: Q04DX002 (ip), vehicle: saline 102 % of control | dose: 200.0 mg/kg/injection, schedule: Q04DX002 (ip), vehicle: saline 87 % of control | dose: 400.0 mg/kg/injection, schedule: Q04DX002 (ip), vehicle: saline 87 % of control

ON=C(CCl)CCl
inactive: dose: 6.25 mg/kg/injection, schedule: Q01DX009 (ip), vehicle: saline 89 % of control | dose: 12.5 mg/kg/injection, schedule: Q01DX001 (ip), vehicle: saline 113 % of control | dose: 25.0 mg/kg/injection, schedule: Q01DX001 (ip), vehicle: saline 98 % of control

O=C(CCCl)c1ccccc1
inactive: [4] 97 % of control | dose: 200.0 mg/kg/injection, schedule: Q04DX002 (ip), vehicle: Klucel (hydroxypropylcellulose) (HPC) 94 % of control

CC1(C)CCCC(OC(=O)c2ccc([N+](=O)[O-])cc2)C1 (centres undefined)
inactive: [1] 93 % of control | [2] 96 % of control | [3] 102 % of control

CN(C)c1ccc(/C=N/NC(=O)c2ccccc2NC(=O)C2CC2)cc1
inactive: [9] 93 % of control | [10] 104 % of control | [11] 90 % of control

O=[N+]([O-])C(Cl)(Cl)C(Cl)(Cl)[N+](=O)[O-]
inactive: dose: 2.5 mg/kg/injection, schedule: Q01DX009 (ip), vehicle: other 97 % of control | dose: 2.5 mg/kg/injection, schedule: Q04DX003 (ip), vehicle: other 100 % of control | dose: 5.0 mg/kg/injection, schedule: Q01DX001 (ip), vehicle: saline 94 % of control | dose: 5.0 mg/kg/injection, schedule: Q01DX009 (ip), vehicle: other 95 % of control | dose: 5.0 mg/kg/injection, schedule: Q04DX003 (ip), vehicle: other 102 % of control | dose: 10.0 mg/kg/injection, schedule: Q01DX001 (ip), vehicle: saline 94 % of control | dose: 10.0 mg/kg/injection, schedule: Q01DX009 (ip), vehicle: other 90 % of control | dose: 10.0 mg/kg/injection, schedule: Q04DX003 (ip), vehicle: other 88 % of control | dose: 20.0 mg/kg/injection, schedule: Q01DX001 (ip), vehicle: saline 92 % of control | dose: 40.0 mg/kg/injection, schedule: Q01DX001 (ip), vehicle: saline 86 % of control | dose: 80.0 mg/kg/injection, schedule: Q01DX001 (ip), vehicle: saline 100 % of control

N#CSCCSC#N
inactive: dose: 10.0 mg/kg/injection, schedule: Q04DX003 (ip), vehicle: Klucel (hydroxypropylcellulose) (HPC) 99 % of control

COC(=O)C(Nc1ccc([N+](=O)[O-])cc1[N+](=O)[O-])C(C)OS(=O)(=O)c1ccc(C)cc1 (centres undefined)
inactive: [6] 95 % of control | [7] 93 % of control | [8] 92 % of control

CCCCc1cccc2c1OCO2
inactive: [6] 103 % of control | [7] 103 % of control

COC(/C=C\C(OC)OC)OC
inactive: dose: 12.5 mg/kg/injection, schedule: Q04DX003 (ip), vehicle: saline 106 % of control | dose: 25.0 mg/kg/injection, schedule: Q04DX003 (ip), vehicle: saline 101 % of control | dose: 50.0 mg/kg/injection, schedule: Q04DX003 (ip), vehicle: saline 101 % of control | [9] 98 % of control | [10] 96 % of control | [11] 96 % of control

O=[N+]([O-])c1ccc(N=Nc2ccc3c(c2)-c2ccccc2/C3=C\c2cccc([N+](=O)[O-])c2)cc1
inactive: [1] 93 % of control | [2] 96 % of control | [3] 98 % of control

O=NN(C(=O)NC1CCCCC1)C1CCCCC1
inactive: [1] 106 % of control | [2] 106 % of control | dose: 300.0 mg/kg/injection, schedule: Q01DX001 (ip), vehicle: carboxymethylcellulose (CMC) 106 % of control | [3] 109 % of control | dose: 500.0 mg/kg/injection, schedule: Q01DX001 (ip), vehicle: carboxymethylcellulose (CMC) 112 % of control

O=C(Nc1cc(C(F)(F)F)ccc1Cl)Oc1ccc(Cl)cc1Cc1ccccc1
inactive: dose: 25.0 mg/kg/injection, schedule: Q01DX009 (ip), vehicle: Klucel (hydroxypropylcellulose) (HPC) 93 % of control | dose: 50.0 mg/kg/injection, schedule: Q01DX009 (ip), vehicle: Klucel (hydroxypropylcellulose) (HPC) 88 % of control | [9] 101 % of control and 86 % of control and 88 % of control

NC(=NCCCC(NC(=O)OCc1ccccc1)C(=O)NC1C(CO)OC(n2cnc3c(N)ncnc32)C1O)N[N+](=O)[O-] (centres undefined)
inactive: dose: 50.0 mg/kg/injection, schedule: Q01DX001 (ip), vehicle: saline 90 % of control | [6] 95 % of control | [7] 93 % of control
